Tests used:
primary CLL B cells = test: Viability of primary patient CLL cells (Annexin V and propidium iodide flow cytometry); format: cell-based; conditions: Homo sapiens, B-cell, 48 hours, read-out: viability, that of the untreated condition
Protocol: (§1) Methods: Primary CLL B cells were isolated from the whole blood of consented patients by FICOLL density centrifugation and rosette-sep negative selection. Annexin V and propidium iodide flow cytometry was used to measure patient CLL cell viability and 7AAD was used to measure viability in stromal co-culture. CD40 and CD86 expression was evaluated via flow cytometry subsequent to sustained 3.2 μM CpG stimulation. BCR signaling in primary CLL cells was investigated by immunoblot succeeding 1 hour treatment and following 1 hour or 24 hours of incubation with Compound 1 in XLA cell lines. MTS values were read after 24 hours of drug incubation. ITK inhibition was investigated via immunoblot after stimulation with anti-CD3 and anti-CD28 and incubation with Compound 1 for 1 hour. Compound 1 was used at a concentration of 1 μM in preclinical studies unless otherwise noted.

TXK = target: T1, TXK (Homo sapiens, UniProt P42681); test: Kinase selectivity, TXK (Kd)
T1 sequence (P42681 1-527): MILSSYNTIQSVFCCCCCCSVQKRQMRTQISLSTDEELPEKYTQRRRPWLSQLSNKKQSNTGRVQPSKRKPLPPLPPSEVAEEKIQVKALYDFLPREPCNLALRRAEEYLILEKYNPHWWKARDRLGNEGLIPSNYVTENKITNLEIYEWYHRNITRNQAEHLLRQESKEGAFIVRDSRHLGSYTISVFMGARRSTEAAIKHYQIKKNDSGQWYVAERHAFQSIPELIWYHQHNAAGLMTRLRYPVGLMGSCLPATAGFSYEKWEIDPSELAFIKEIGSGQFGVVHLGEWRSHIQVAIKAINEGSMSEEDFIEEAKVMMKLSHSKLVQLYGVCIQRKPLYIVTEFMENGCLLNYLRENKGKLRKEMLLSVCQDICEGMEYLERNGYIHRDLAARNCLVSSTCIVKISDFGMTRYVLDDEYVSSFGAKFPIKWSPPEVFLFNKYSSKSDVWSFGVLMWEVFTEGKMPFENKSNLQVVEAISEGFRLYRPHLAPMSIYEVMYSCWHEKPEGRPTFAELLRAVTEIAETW

[1] = tested on: primary CLL cells in the presence of HS5 stromal protection; test: Viability of primary CLL cells in stromal co-culture (7AAD); format: cell-based; conditions: Homo sapiens, CLL cell, 48 hours, read-out: decrease of viability
Protocol: as §1

CYP3A4 = target: T2, CYP3A4 (Homo sapiens, UniProt P08684); test: Phase 1a study Stage 3: drug-drug interaction with itraconazole (effect of CYP3A4 inhibition); format: in vivo; conditions: for Cmax / AUC(0-t) / AUC(0-inf) / Tmax: plasma, oral; for Cmax / AUC(0-t) / AUC(0-inf): arithmetic mean (CV %); for Tmax: median (min, max)
T2 construct: from tissue; host or cells: human subjects in vivo
Protocol: Stage 3 evaluated 12 subjects from Cohort 6 who had already received Compound 2 in Stage 2 of the study. Compound 2 at a dose of 25 mg was administered once in the fasted state on Day 1 and subjects were followed for safety, PK and PD evaluations. On Day 4, subjects then received itraconazole (a potent CYP3A4 inhibitor) that was administered at a dose of 200 mg twice daily on Days 4 through 9 in the fed state (except at the morning dose on Day 7). In the morning of Day 7, subjects received itraconazole at a dose of 200 mg followed shortly by administration of Compound 2 at a dose of 25 mg (with both drugs given in the fasted state). Subjects were then followed for safety, PK and PD evaluations on Days 7, 8, 9, and 10. PK results observed following administration of Compound 2 alone on Day 1 were compared with those observed in these same subjects after administration of Compound 2 with itraconazole on Day 7.
The effect of the strong CYP3A4 inhibitor, itraconazole, on the pharmacokinetics of an oral dose of 25 mg Compound 2 was evaluated in 12 subjects (Table 7a). […].

human recombinant WT BTK = human recombinant WT BTK (Homo sapiens, UniProt Q06187); test: FRET recombinant kinase assay, WT BTK; format: biochemical
[2] = Phase 1a study Stage 2: food effect on pharmacokinetics; format: in vivo, human; conditions: 200 mg oral
Protocol: In Stage 2, the effects of food on the pharmacokinetics of Compound 2 were assessed. In this stage, 12 newly enrolled subjects (6 males, 6 females; Cohort 6) were administered Compound 2 on two separate occasions, either in a fasting or fed state, with a period of ≥72 hours between the two doses. The Compound 2 dose level was 200 mg. The 12 subjects were randomized such that 6 subjects (3 males, 3 females) received Compound 2 after an overnight fast, and 6 subjects (3 males, 3 females) received Compound 2 after ingestion of a standardized, high-fat meal. Approximately 4 days later, the subjects were crossed over so that those who received Compound 2 without food in the first period then received the drug with food, while those who received Compound 2 with food in the first period then received the drug without food.
The effects of food on the pharmacokinetics of Compound 2 were assessed after oral administration of 200 mg Compound 2 to 12 subjects in the fed and fasted states. The absorption rate of Compound 2 in fed state was decreased, with Tmax delayed by 2 hours and Cmax decreased by about 30%; however, there was no impact on the extent of absorption (AUC) and elimination (T½) of Compound 2.

Single-dose PK in rat = format: in vivo, male Sprague Dawley rats; conditions: male, Sprague Dawley, plasma
Protocol: A series of single-dose PK studies were conducted in rat, dog, and monkey to investigate the plasma PK of Compound 2 following single oral and single intravenous (IV) administration of Compound 2.
The PK profile of Compound 2 was evaluated in male Sprague Dawley rats (n=3) following single IV administration of Compound 2 at 1 mg/kg and single oral administration at 5 mg/kg. Following each administration serial blood samples were collected at 0 (predose), 0.08, 0.25, 0.5, 0.75, 2, 5, 10, and 24 hours postdose.

[3] = 1 mg/kg, IV, dose 1, SPEW, free base measured
[4] = 5 mg/kg, PO, dose 5, 0.1% CMC/0.2% Tween, free base measured
[5] = human, Compound 2 25 mg fasted + itraconazole
[6] = human, Compound 2 25 mg fasted, N = 12

T2 sequence (P08684 whole entry): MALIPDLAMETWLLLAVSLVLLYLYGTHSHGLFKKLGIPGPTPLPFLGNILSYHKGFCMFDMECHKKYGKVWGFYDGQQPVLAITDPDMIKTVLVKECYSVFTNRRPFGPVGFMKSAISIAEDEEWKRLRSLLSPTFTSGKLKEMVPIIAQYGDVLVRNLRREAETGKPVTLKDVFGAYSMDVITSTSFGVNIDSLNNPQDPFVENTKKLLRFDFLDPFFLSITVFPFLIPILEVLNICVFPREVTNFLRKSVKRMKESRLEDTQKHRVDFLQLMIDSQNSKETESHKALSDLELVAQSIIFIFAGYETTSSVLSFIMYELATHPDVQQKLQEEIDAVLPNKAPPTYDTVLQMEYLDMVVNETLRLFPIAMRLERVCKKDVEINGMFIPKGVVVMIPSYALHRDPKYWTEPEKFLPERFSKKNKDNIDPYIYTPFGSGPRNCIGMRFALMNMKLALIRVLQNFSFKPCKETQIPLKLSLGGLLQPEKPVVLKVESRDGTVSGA
human recombinant WT BTK, sequence (Q06187 whole entry): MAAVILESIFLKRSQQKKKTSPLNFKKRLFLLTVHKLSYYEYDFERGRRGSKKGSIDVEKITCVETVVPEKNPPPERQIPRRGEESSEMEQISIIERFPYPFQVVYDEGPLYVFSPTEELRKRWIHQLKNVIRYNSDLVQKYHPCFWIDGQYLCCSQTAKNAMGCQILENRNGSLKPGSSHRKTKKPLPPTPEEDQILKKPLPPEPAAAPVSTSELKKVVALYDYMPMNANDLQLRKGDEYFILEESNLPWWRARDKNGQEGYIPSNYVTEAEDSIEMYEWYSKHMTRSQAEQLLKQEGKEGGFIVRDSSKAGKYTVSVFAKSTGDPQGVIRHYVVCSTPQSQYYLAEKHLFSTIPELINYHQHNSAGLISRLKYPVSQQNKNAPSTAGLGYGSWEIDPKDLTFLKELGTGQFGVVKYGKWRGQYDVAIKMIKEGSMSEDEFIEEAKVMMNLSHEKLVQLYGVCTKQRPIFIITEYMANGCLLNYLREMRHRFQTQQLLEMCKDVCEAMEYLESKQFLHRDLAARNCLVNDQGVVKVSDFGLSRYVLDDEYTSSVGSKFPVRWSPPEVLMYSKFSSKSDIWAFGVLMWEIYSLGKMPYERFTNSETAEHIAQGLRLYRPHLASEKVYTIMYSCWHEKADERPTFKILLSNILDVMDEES

`NC(=O)[C@H]1CCN(c2ncnc(N)c2F)C[C@@H]1N1CCC[C@@H](Nc2cc(Cl)cc(C(F)(F)F)c2)C1=O` [Compound 1, (3R,3′R,4′S)-1′-(6-amino-5-fluoropyrimidin-4-yl)-3-((3-chloro-5-(trifluoromethyl)phenyl)amino)-2-oxo-[1,3′-bipiperidine]-4′-carboxamide] gave a viability at 0.1 µM (primary CLL B cells; 0.1 μM) of 96.7%, a viability at 1 µM (primary CLL B cells; 1.0 μM) of 96.1% and a viability at 10 µM (primary CLL B cells; 10.0 μM) of 88.1%. For the same molecule, the Kd (TXK) was at least 200 nM, the cytotoxicity at 1 µM [1] was 5.5% and the “increase of plasma exposure (Cmax) with itraconazole” value (CYP3A4; 25 mg Compound 2 + itraconazole vs alone) was “about 2 fold”. The CYP3A4 substrate classification (CYP3A4; ≥5-fold increase in exposure in the presence of CYP enzyme inhibition) was “sensitive substrate for CYP3A4” and the IC50 (human recombinant WT BTK) was 4.6 nM.

For `NC(=O)[C@H]1CCN(c2ncnc(N)c2F)C[C@@H]1N1CCC[C@@H](Nc2cc(Cl)cc(C(F)(F)F)c2)C1=O` [Compound 2], the “apparent total body clearance and volume of distribution, fed vs fasted” value [2] was “comparable in both food conditions”, the “impact of food on extent of absorption (AUC) and elimination (T½)” value ([2]; fed vs fasted) was “no impact” and the “decrease of Cmax in fed state” value ([2]; fed vs fasted, 12 subjects) was “about 30%”. It also gave a Tmax ([2]; both sexes, human, plasma, fed vs fasted, 12 subjects, read-out: delay of Tmax in fed state) of 2 h, an AUC(0-inf) (Single-dose PK in rat; [3]) of 16100 ng·h/mL and a C0 (Single-dose PK in rat; [3]) of 4370 ng/mL. The half-life (Single-dose PK in rat; [3]) was 4 h, the AUC(0-inf) (Single-dose PK in rat; [4]) was 14600 ng·h/mL and the Cmax (Single-dose PK in rat; [4]) was 1780 ng/mL. The Tmax (Single-dose PK in rat; [4]) was 2.6 h, the bioavailability (Single-dose PK in rat; 5 mg/kg, PO, dose 5, 0.1% CMC/0.2% Tween, read-out: % F (oral bioavailability)) was 18% and the CL/F (CYP3A4; human, in vivo, 25 mg) was 6.34 (41.6) L/hr. The Vd/F (CYP3A4; human, in vivo, 25 mg) was 57.5 L, the half-life (CYP3A4; human, in vivo, 25 mg) was 6.9 h and the Cmax (CYP3A4; human, Compound 2 25 mg fasted + itraconazole, N = 12) was 1680 ng/mL. The AUC(0-t) (CYP3A4; [5]) was 28000 ng·h/mL, the AUC(0-inf) (CYP3A4; human, Compound 2 25 mg fasted + itraconazole, N = 11) was 32200 ng·h/mL and the Tmax (CYP3A4; [5]) was 1.5 h. For the same molecule, the Cmax (CYP3A4; [6]) was 873 ng/mL, the Tmax (CYP3A4; [6]) was 1 h and the AUC(0-inf) (CYP3A4; human, Compound 2 25 mg fasted) was 4620 ng·h/mL. It also gave an AUC(0-t) (CYP3A4; human, Compound 2 25 mg fasted) of 4420 ng·h/mL.
